Measured values reported in patent US6841537B1, “Combination therapy using nucleic acids and conventional drugs” (Protiva Biotherapeutics Inc., priority 1998, dated 2005).

What was measured:
MCA 207 tumor [1] = test: Combination therapy: OncoTCS then i.v. INEX 324 with pINEX-IL-12, tumor size; format: in vivo, C57 BL/6 mice; conditions: subtherapeutic dose (OncoTCS 0.5 mg/kg i.v.) before INEX 324 i.v. 100 μg DNA
Description: C57 BL/6 mice are seeded subcutaneously with MCA 207 tumor cells. Tumor seeding is performed by standard techniques. Mice were seeded subcutaneously on the hip flank with 100,000 MCA-207 fibrosarcoma tumor cells by sub-cutaneous injection on day zero.
On days 7-10, when tumors had developed to useable sizes, mice were injected i.v. via tail vein with approximately 0.5 mg/kg of OncoTCS (200 μL).
At 8, 16, 24, 30, 36, 42 or […] after OncoTCS treatment, the mice were injected i.v. via tail vein with INEX 324 (100 μg DNA pINEX-1L-12 with about 500 μg lipid all in about 200 μL total volume). Control mice received HBS.

MCA 207 tumor [2] = test: Combination therapy: OncoTCS then i.v. INEX 303 with pINEX-TK10 plus ganciclovir, tumor size; format: in vivo, C57 BL/6 mice; conditions: subtherapeutic pretreatment (OncoTCS 0.5 mg/kg i.v.) before INEX 303 pINEX-TK10 i.v. and ganciclovir i.p.
Description: C57 BL/6 mice are seeded subcutaneously with MCA 207 tumor cells. Tumor seeding is performed by standard techniques. Mice are seeded subcutaneously on the hip flank with 100,000 MCA-207 fibrosarcoma tumor cells by […] injection on day zero. The tumor cells are cultivated and prepared according to standard techniques using RPMI media with 10% Fetal Bovine Serum (see, for example, Current Protocols in Molecular Biology, Eds. Ausubel, F. M., et al.)
At 8, 16, 24, 30, 36, 42 or […] after OncoTCS treatment, the mice are injected i.v. via tail vein with INEX 303 containing pINEX-TK10 prepared as described herein (100 μg DNA with about 500 μg lipid all in about 200 μL total volume). Control mice receive HBS.
1 mg ganciclovir, which is in 200 μL PBS (approximately 50 mg/kg; commercially available from Hoffman La Roche) is administered by intraperitoneal injection 12 h and 24 h after SPLP administration.

B16 cells = test: Luciferase activity in i.p. tumors after i.p. INEX 324 following OncoTCS; format: in vivo, C57 mice; conditions: OncoTCS 0.5 mg/kg i.v. 24 hours before INEX 324 i.p. 20 micrograms
Description: […] are seeded intraperitoneally with about 100,000 B16 cells. On day 7, 12 mice are injected i.v. via the tail vein with about 0.5 mg/kg of OncoTCS (vincristine sulfate encapsulated in sphingomyelin-containing TCS) in about 200 microliters. 12 control mice are not treated with OncoTCS. 24 hours later, all mice are injected i.p. with 20 micrograms of INEX 324 (TCS containing luciferase plasmid pINEX L018) in 500 microliters. Tumors are harvested 6, 12, 24 and 48 hours later, fast frozen, and stored at −70° C. until analyzed for luciferase activity. The frozen organs are then thawed at room temperature. 600 microliters of 1× cell culture lysis buffer (Promega) is added and the samples are homogenized in a FASTPREP homogenizer for 20 sec. at speed 4.0. The samples are centifuged for 2 min. at 10,000 g, and 20 microliters of the supernatant is assayed for luciferase activity.

SK-OV-3 cells [3] = test: Cell cycle arrest by aphidicolin, propidium iodide staining and flow cytometry; format: cell-based, human; conditions: (+/−) culture
Description: (§1) SK-OV-3 or HeLa-luc cells were seeded at a density of 30,000 cells per well in a 24 well plate in growth media 24 hours prior to treatment with aphidicolin. Aphidicolin (Sigma) was reconstituted in phosphate buffered saline containing 0.5% DMSO. Cells were incubated with aphidicolin at a final concentration of 5 μg/mL in 1 mL of media per well for 16 hours prior to transfection. Transfection was accomplished by the addition of 0.5 μg of formulated DNA to each well.
The cell cycle status of cultures was determined by flow cytometry of permeabilized cells that were stained with propidium iodide. Prior to harvesting, media was aspirated and the cells were washed twice with 2 mL phosphate buffered saline (PBS). […] 5,000 cells were analyzed in the FL2 channel (λemission=585+/−21 nm) of a FACSort flow cytometer (Becton-Dickinson, San Jose, Calif.) equipped with an Ar- ion laser (λexcitation=488 nm)
In an initial study, the effectiveness of a non-lethal concentration of aphidicholin to arrest SK-OV-3 cells was determined. A sub-confluent asynchronous cell culture contained approx. 75%, 5% and 20% of cells in G1, S and M phase, respectively, as measured by staining with propidium iodide (PI) followed by flow cytometry (FIG. 1(A)). […]

SK-OV-3 cells [4] = test: Uptake of YOYO-1 labeled plasmid DNA lipoplexes by flow cytometry; format: cell-based, human; conditions: aphidicolin arrested vs control cells
Description: as §1, with “well. […]” for “well.”
Lipoplexes were prepared using YOYO-1 labeled DNA and incubated with cells. […] Fluorescence was measured in the FL1 channel (λemission=530+/−15 nm) of a FACSort flow cytometer (Becton-Dickinson, San Jose, Calif.) equipped with an Ar- ion laser ([…]). Data was collected from 10,000 cells and analyzed for fluorescence using CellQuest software.
In order to determine whether aphidicolin treatment affects cellular processes related to transgene expression, effects on DNA uptake and gene expression were studied. It has been shown previously that fluorescently labeled DNA can be formulated as lipoplexes and the uptake of lipoplexes can be measured by flow cytometry (see, Zabner, et al., J. Biol. Chem., 270:18997-19007 (1995); and Tseng, et al., Biotechnol. Bioeng., 50:548-554 (1996);). […] The rate of lipoplex uptake per cell was determined by flow cytometry. […]

HeLa-luc cells = test: Effect of aphidicolin on constitutive CMV driven luciferase gene expression; format: cell-based, human; conditions: 0, 6 and 24 hours after arrest vs untreated control cells
Description: SK-OV-3 cells (human ovarian tumor cells, ATCC) were cultured in RPMI 1640 media (StemCell Technologies, Vancouver, B.C.) supplemented with 10% fetal bovine serum (Intergen). HeLa-luc cells were stably transfected with a luciferase reporter plasmid and cultured in Dulbecco's modified Eagle medium (StemCell Technologies, Vancouver, B.C.) supplemented with 10% fetal bovine serum and 400 μg/mL Geneticin (Gibco BRL). […]
(§2) Luciferase assays were performed using the Luciferase Assay System kit (Promega, Madison, Wis.) according to the manufacturer's protocol. […] A standard curve was determined by assaying 20 μL of serial dilutions of a 1 mg/mL luciferase standard (Boehringer Mannheim). […] Absorbance was monitored at 570 nm (Dynatech MR5000 plate reader) and protein content calculated using a standard curve of varying concentrations of BSA.
To determine the effect of aphidicolin-mediated cell cycle arrest on the transcriptional and translational machinery of the cell, a clonal HeLa cell line stably transfected with a CMV driven luciferase expression cassette (Song, Inex Pharmaceuticals, unpublished) was analyzed. […]

SK-OV-3 cells [5] = test: Lipid mediated transfection (luciferase activity) in aphidicolin treated cells; format: cell-based, human
Description: Lipoplexes were prepared as follows: All reagents were sterile and cooled to 4° C. prior to complex preparation. A solution containing 62 μM dioleoyldimethylammonium chloride:1,2-sn-dioleoylphosphatidylethanolamine (DODAC:DOPE) large unilamellar vesicles (LUVs) and a solution containing 10 μg/mL plasmid DNA were prepared in distilled water. The DNA was added to an equal volume of lipid dropwise, while vortexing. The solution was incubated on ice for 30 minutes prior to transfection. The resulting lipoplexes contained a final DNA concentration of 0.5 μg/100 μL and the cationic lipid:DNA (+:−) charge ratio was 1:1.
Plasmid containing a therapeutic gene was encapsulated as SPLP using the detergent dialysis method of INEX 351. […]
as §2
An initial experiment was performed to determine whether lipid mediated transfection was affected by the cell cycle status of SK-OV-3 cells in vitro. […] Luciferase activity was measured after 24 hrs of continuous exposure to lipoplexes. […]

SMILES	effect on therapeutic effect of pINEX-IL-12 in INEX 324 (MCA 207 tumor [1])	tumor growth vs HSV-TK/ganciclovir system alone (MCA 207 tumor [2])	transfection of tumors (B16 cells)	cells in the G2/M phase (SK-OV-3 cells [3]; 16 hrs after removal of aphidicolin block)	cells that had undergone mitotic division and progressed into the G1 phase (SK-OV-3 cells [3]; within 22 hrs after removal of aphidicolin block) [%]	effect of cell cycle arrest on internalization of lipoplexes (SK-OV-3 cells [4])	effect on level of luciferase gene expression (HeLa-luc cells)	decrease in luciferase gene expression (SK-OV-3 cells [5]; (+/+) culture arrested in G1, 24 hrs continuous exposure to DODAC:DOPE lipoplexes, vs asynchronous control) [fold]	luciferase expression vs control asynchronous culture (SK-OV-3 cells [5]; (+/−) culture, 24 hrs exposure to lipoplexes)
CC[C@]1(O)C[C@H]2CN(CCc3c([nH]c4ccccc34)[C@@](C(=O)OC)(c3cc4c(cc3OC)N(C=O)[C@H]3[C@@](O)(C(=O)OC)[C@H](OC(C)=O)[C@]5(CC)C=CCN6CC[C@]43[C@@H]65)C2)C1 [vincristine]	greatly enhances the therapeutic effect	inhibits growth of tumors and promotes tumor regression to a significantly greater degree	transfection of neoplastic sites	–	–	–	–	–	–
C[C@@]1(CO)[C@H](O)CC[C@@]2(C)[C@H]1CC[C@H]1C[C@@H]3C[C@@]12CC[C@]3(O)CO [aphidicolin, Aphidicolin]	–	–	–	approximately 85%	~45	does not affect the internalization of lipoplexes	did not significantly affect	20	did not differ significantly
